Results on three molecules are retold here after patent publication US10875830B2, “Method of treatment” (priority 2016, dated 2020).

Read-outs that look alike come from different tables or passages of the source.

Test [1] concerns the target T1, PqsR (Pseudomonas aeruginosa, UniProt Q9I4X0).
T1 construct: endogenous in cells; host or cells: P. aeruginosa PAO1-L ΔpqsA, chromosomal pqsA::lux fusion
Put plainly: PQS-dependent pqsA::lux expression in AQ-non producing PAO1-L ΔpqsA (PqsR antagonism). It counts as cell-based. The source says: The inhibitory action of 4-(4-chlorophenyl)-5-methylene-pyrrol-2-one (Ref. 488) may involve inhibition of AQ biosynthesis or 4-(4-chlorophenyl)-5-methylene-pyrrol-2-one (Ref. 488) may behave like an antagonist and block the PQS receptor, PqsR. […] Experiments were therefore designed to determine the nature and degree of 4-(4-chlorophenyl)-5-methylene-pyrrol-2-one (Ref. 488) inhibitory activity.
By using the AQ-non producing P. aeruginosa strain PAO1-L ΔpqsA, pqsA::lux, the EC50 value for the native PqsR agonist, PQS was calculated as ˜2 μM (Ilangovan et al. 2013).
The experiment shown in FIG. 8 was then repeated using 4-(4-chlorophenyl)-5-methylene-pyrrol-2-one (Ref. 488) concentrations of 0, 50, 100 and 200 μM.
A partial agonist is a molecule that can bind to and activate a receptor resulting in a non-complete response compared with a full agonist. […] This contrasts with its activity as an antagonist in the presence of 10 or 40 μM PQS.

In test [2] the test system is P. aeruginosa strain PAO1-L. Put plainly: pyocyanin production by PAO1-L, visual assessment. In kind it is cell-based, Pseudomonas aeruginosa. Particulars: 100 μM (vial 2), 8 h at 37° C., qualitative. The source says:
Pyocyanin is a blue redox-active secondary metabolite and a putative signalling molecule in P. aeruginosa (Jayaseelan et al, 2014). The pyocyanin biosynthetic (phz) genes are regulated by QS and in part via the transcriptional regulator PqsR acting through PqsE (Rampioni et al 2011).
Although qualitative, this observation offers further confirmation of the inhibitory effects of lactam 4-(4-chlorophenyl)-5-methylene-pyrrol-2-one (Ref. 488) on AQ-dependent QS.

For test [3], the system named is PAO1-N ΔpqsAHR pqsA'::lux. Put plainly: PqsR-independent pqsA'::lux expression in PAO1-N ΔpqsAHR. It counts as cell-based, Pseudomonas aeruginosa. The settings on record: presence or absence of 40 μM PQS, FIG. 11. The source says: PQS is capable of weakly activating pqsA in the absence of PqsR via a mechanism that is not fully understood but appears to depend on the iron chelating properties of PQS. The aim of this experiment was to clarify whether lactam 4-(4-chlorophenyl)-5-methylene-pyrrol-2-one (Ref. 488) is also inhibitory for pqsA expression via the PqsR independent pathway. As previously described, the pqsA′::lux biosensor based on the triple mutant PAO1-N ΔpqsAHR cannot produce AQs and lacks pqsR but still responds to exogenous PQS. This response is however much weaker that the PqsR-dependent response.

For test [4], the system named is PqsABCD. Put plainly: AQ (HHQ) biosynthesis by PqsABCD, TLC with biosensor overlay. In kind it is cell-based, Pseudomonas aeruginosa. The settings on record: 200 μM, PAO1-N ΔpqsAHR pBBR-pqsABCD, overnight in LB. The source says:
To determine whether 4-(4-chlorophenyl)-5-methylene-pyrrol-2-one (Ref. 488) is capable of inhibiting the enzymes (PqsABCD) involved in AQ biosynthesis, the P. aeruginosa PAO1-N ΔpqsAHR was exploited. This mutant cannot produce AQs because the genes coding for the key biosynthetic enzymes (PqsA and PqsH) and regulation (PqsR) have been deleted. To restore AQ production in a PqsR-independent manner in PAO1-N ΔpqsA, the pqsABCD genes were introduced on a plasmid (pBBR pqsABCD; Niewerth et al. 2011). P. aeruginosa PAO1-N ΔpqsAHR and P. aeruginosa PAO1-N ΔpqsAHR pBBR pqsABCD were both incubated overnight in LB with and without 4-(4-chlorophenyl)-5-methylene-pyrrol-2-one (Ref. 488) (200 μM), resuspended to an OD600 1.0. The cultures were extracted with acidified ethyl acetate, the organic phase removed, dried and resuspended in methanol subjected to thin layer chromatography (TLC).
After chromatography using a dichloromethane-methanol mobile phase, the TLC plates were overlaid with a thin agar layer containing the AQ biosensor strain PAO1-L ΔpqsA CTX::pqsA′-luxCDABE (Fletcher et al. 2007) incubated and examined for reporter output (FIG. 13). […] The biosensor strain produces light (FIG. 13 panel C) and pyocyanin (FIG. 13 panel B) in response to AQs that bind to PqsR and activate the pqsA promoter.

The subject of test [5] is P. aeruginosa PA14 pqsA'::lux. Put plainly: pqsA'::lux fusion in P. aeruginosa PA14. In kind it is cell-based. The settings on record: Pseudomonas aeruginosa, PA14, read-out: IC50, pqsA'::lux expression in PA14. The source says:
To investigate the inhibitory effect of 4-(4-chlorophenyl)-5-methylene-pyrrol-2-one (Ref. 488) on P. aeruginosa PA14, a pqsA′::lux fusion was introduced onto the chromosome.

For test [6], the system named is P. aeruginosa PAO1 pqsA::lux. Put plainly: pqsA::lux promoter fusion biosensor in P. aeruginosa PAO1-L (AQ-dependent quorum sensing). It counts as cell-based, Pseudomonas aeruginosa. The settings on record: for IC50: Pseudomonas aeruginosa, PAO1, read-out: IC50, pqsA::lux expression; for inhibition of light output / pqsA expression at high concentrations: FIG. 6 and 7. As for the experimental part:
The expression of rhl and las AHL- and the pqsA AQ-synthase genes was evaluated using lux-based lasl (FIG. 1), rhll (FIG. 2) and pqsA (FIG. 3) chromosomally integrated promoter fusions. Luminescence was quantified as a function of bacterial growth. The applicant further determined that none of the lactams is growth inhibitory at 100 μM using a large number of strains (figure not shown).
To determine the relative inhibitory activities (IC50s) of 4-(4-chlorophenyl)-5-methylene-pyrrol-2-one (Ref. 488) and 5-methylene-4-(p-tolyl)pyrrol-2-one (Ref. 491), dose response curves were constructed using the same biosensor strain (P. aeruginosa PAO1 pqsA::lux; Fletcher et al, 2007; Ilangovan et al 2013). This strain produces light in response to the endogenous production of AQs such as PQS and HHQ.

T1 sequence (Q9I4X0 whole entry, the tested form may be a part): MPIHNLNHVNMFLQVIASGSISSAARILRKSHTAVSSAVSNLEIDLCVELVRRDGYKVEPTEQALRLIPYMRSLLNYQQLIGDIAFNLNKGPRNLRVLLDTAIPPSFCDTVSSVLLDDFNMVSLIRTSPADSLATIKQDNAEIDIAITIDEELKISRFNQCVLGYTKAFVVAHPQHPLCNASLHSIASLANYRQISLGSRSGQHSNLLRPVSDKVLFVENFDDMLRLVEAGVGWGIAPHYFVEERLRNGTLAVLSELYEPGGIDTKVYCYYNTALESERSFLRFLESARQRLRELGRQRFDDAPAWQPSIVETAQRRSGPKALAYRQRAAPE

With `C=C1NC(=O)C=C1c1ccc(Cl)cc1` [Lactam 488, 4-(4-chlorophenyl)-5-methylene-pyrrol-2-one], the “mode of action on PQS-dependent pqsA::lux expression” value in test [1] (488 at 0, 50, 100 and 200 μM, range of PQS, FIG. 9) was “competitive antagonist”. In addition, the “restoration of light output by PQS in the presence of the lactam” value in test [1] (488 at 50, 100, 200 μM, FIG. 9) is reported as “fully restoring light output in the presence of 50 μM but not 100 μM or 200 μM”. The “partial agonist activity (activation of pqsA expression)” value in test [1] (concentrations up to 800 μM, without PQS, FIG. 10) is “no partial agonist activity”. Besides, in test [1] (fixed concentration of 488 (215 μM)), the “fold increase of PQS EC50 caused by the lactam” value is reported as roughly 15 fold. Also, the pyocyanin production entry in test [2] is reported as “inhibition of pyocyanin production”. In addition, the “effect on the PqsR-independent expression of pqsA” value in test [3] is “small inhibitory effect”. The “inhibition of HHQ biosynthesis” value in test [4] is “did not inhibit HHQ biosynthesis”. The IC50 in test [5] was found to be 17.9 µM. Moreover, in test [6], the 50% inhibitory concentration (IC50) was determined as 22 µM and the “inhibition of light output / pqsA expression at high concentrations” value is on record as “completely inhibited light output”. Besides, the “inhibition of the PqsR-dependent pqsA::lux promoter fusion (screen)” value in test [6] (lactams at 100 μM, FIG. 3) is “most potent inhibitor”.
Turning to `C=C1NC(=O)C=C1c1ccc(C)cc1` [Lactam 491, 5-methylene-4-(p-tolyl)pyrrol-2-one], in test [6], the IC50 was 44 µM and the “inhibition of light output / pqsA expression at high concentrations” value was “did not inhibit pqsA expression as strongly”.
`CCCCCCCc1[nH]c2ccccc2c(=O)c1O` [PQS, 2-heptyl-3-hydroxy-4-(1H)-quinolone, reference compound]: the EC50 in test [1] (EC50 of PQS for pqsA::lux expression in the presence of lactam 488, fixed concentration of 488 (215 μM), range of PQS concentrations, FIG. 8) is 31 µM; in test [1] (EC50 of PQS for pqsA::lux expression, PQS alone, PAO1-L ΔpqsA pqsA::lux), roughly 2 µM; in test [1] (PQS alone, PAO1-L ΔpqsA pqsA::lux, read-out: EC50 of PQS for pqsA::lux expression), 2 µM.
